# pIC50: −log10 of the molar value.
# Target: DOT1L(1-416) (Homo sapiens, UniProt Q8TEK3)
# Assay: Determination of IC50: DOT1L(1-416) methyltransferase assay, 3H-SAM, oligonucleosome substrate, Flashplate
# Format: biochemical
# Settings: DOT1L IC50, class symbols
# In short: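 Compounds in 10-point 3-fold DMSO dilutions were tested in reactions started with substrate mix of 200 nM [3H]-SAM, 600 nM unlabeled SAM and 20 nM oligonucleosome. Reactions ran 120 min at room temperature and were quenched with 100 μM SAM. Labeled substrate was captured on streptavidin Flashplates and counted by scintillation to give IC50.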
# Chain of DOT1L(1-416) (Q8TEK3 1-416): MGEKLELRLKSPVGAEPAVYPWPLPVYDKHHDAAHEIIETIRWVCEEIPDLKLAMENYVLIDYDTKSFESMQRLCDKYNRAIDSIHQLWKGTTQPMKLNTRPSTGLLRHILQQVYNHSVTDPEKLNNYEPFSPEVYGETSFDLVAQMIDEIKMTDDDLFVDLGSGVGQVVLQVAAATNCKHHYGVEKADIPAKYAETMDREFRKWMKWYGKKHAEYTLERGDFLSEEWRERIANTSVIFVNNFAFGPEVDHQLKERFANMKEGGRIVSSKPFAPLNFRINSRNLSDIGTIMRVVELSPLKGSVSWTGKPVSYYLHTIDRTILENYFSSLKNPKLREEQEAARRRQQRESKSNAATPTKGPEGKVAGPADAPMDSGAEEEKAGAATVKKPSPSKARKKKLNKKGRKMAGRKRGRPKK
row,pIC50,Compound
1,> 7.00,"CC(C)[N+]([O-])(C[C@H]1O[C@@H](n2cnc3c(N)ncnc32)[C@H](O)[C@@H]1O)[C@H]1C[C@@H](CCc2nc3cc(C(C)(C)C)ccc3[nH]2)C1 (stereo partly drawn) [Compound 106, (1r,3S)-N-(((2R,3S,4R,5R)-5-(6-amino-9H-purin-9-yl)-3,4-dihydroxy-tetrahydrofuran-2-yl)methyl)-3-(2-(5-(tert-butyl)-1H-benzo[d]imidazol-2-yl)ethyl)-N-isopropyl-cyclobutanamine oxide]"
2,> 7.00,"CC(C)[N+]([O-])(CC1O[C@@H](n2cnc3c(N)ncnc32)[C@H](O)[C@@H]1O)[C@H]1C[C@H](CCc2nc3cc(C(C)(C)C)ccc3[nH]2)C1 (stereo partly drawn) [Compound 107, (R,1s,3R)-N-(((2R,35,4R,5R)-5-(6-amino-9H-purin-9-yl)-3,4-dihydroxy-tetrahydrofuran-2-yl)methyl)-3-(2-(5-(tert-butyl)-1H-benzo[d]imidazol-2-yl)ethyl)-N-isopropyl-cyclobutanamine oxide]"

# Same assay, conditions: class symbols; read-out: DOT1L IC50
row,pIC50,Compound
1,5.00 to 6.00,"CC(C)N(C[C@@H]1C[C@@H](O)[C@H](n2ccc3c(N)ncnc32)C1)[C@H]1C[C@@H](CCc2nc3cc(Cl)c(C(F)(F)F)cc3[nH]2)C1 [Compound 105, (1R,2R,4S)-2-(4-amino-7H-pyrrolo[2,3-d]pyrimidin-7-yl)-4-((((1r,3R)-3-(2-(5-chloro-6-(trifluoromethyl)-1H-benzo[d]imidazol-2-yl)ethyl)cyclobutyl) (isopropyl)amino)methyl)cyclopentanol]"
2,> 7.00,"CN(C[C@H]1O[C@@H](n2cnc3c(N)ncnc32)[C@H](O)[C@@H]1O)C1CC(CNC(=O)Nc2ccc(C(C)(C)C)cc2)C1 (stereo partly drawn) [Compound 110, 1-((3-((((2R,3S,4R,5R)-5-(6-amino-9H-purin-9-yl)-3,4-dihydroxytetrahydrofuran-2-yl)methyl)(methyl)amino)cyclobutyl)methyl)-3-(4-(tert-butyl)phenyl)urea]"
3,> 7.00,"CC(C)N(C[C@H]1O[C@@H](n2cnc3c(N)ncnc32)[C@H](O)[C@@H]1O)C1CC(CCc2nc3cc(C4CCC4)ccc3[nH]2)C1 (stereo partly drawn) [Compound 111, (2R,3R,4S,5R)-2-(6-amino-9H-purin-9-yl)-5-(((3-(2-(5-cyclobutyl-1H-benzo[d]imidazol-2-yl)ethyl)cyclobutyl) (isopropyl)amino)methyl)tetrahydrofuran-3,4-diol]"
4,> 7.00,"CC(C)N(C[C@H]1O[C@@H](n2cnc3c(N)ncnc32)[C@H](O)[C@@H]1O)C1CC(CCc2nc3cc(C4CC4)ccc3[nH]2)C1 (stereo partly drawn) [Compound 112, (2R,3R,4S,5R)-2-(6-amino-9H-purin-9-yl)-5-(((3-(2-(5-cyclopropyl-1H-benzo[d]imidazol-2-yl)ethyl)cyclobutyl) (isopropyl)amino)methyl)tetrahydrofuran-3,4-diol]"
5,> 7.00,"CC(C)N(C[C@H]1O[C@@H](n2cnc3c(N)ncnc32)[C@H](O)[C@@H]1O)[C@H]1C[C@H](CCc2nc3cc(C4CCC4)ccc3[nH]2)C1 [Compound 114, (2R,3R,4S,5R)-2-(6-amino-9H-purin-9-yl)-5-((((1s,3R)-3-(2-(5-cyclobutyl-1H-benzo[d]imidazol-2-yl)ethyl)cyclobutyl) (isopropyl)amino)methyl)tetrahydrofuran-3,4-diol]"
6,> 7.00,"CC(C)N(C[C@H]1O[C@@H](n2cnc3c(N)ncnc32)[C@H](O)[C@@H]1O)[C@H]1C[C@@H](CCc2nc3cc(C4CCC4)ccc3[nH]2)C1 [Compound 115, (2R,3R,4S,5R)-2-(6-amino-9H-purin-9-yl)-5-((((1r,3S)-3-(2-(5-cyclobutyl-1H-benzo[d]imidazol-2-yl)ethyl)cyclobutyl) (isopropyl)amino)methyl)tetrahydrofuran-3,4-diol]"

# The remaining lines, values behind:
row,Compound,pIC50
1,"CCN(C[C@H]1O[C@@H](n2ccc3c(N)ncnc32)[C@H](O)[C@@H]1O)[C@H]1C[C@H](CCc2nc3cc(C(C)(C)C)ccc3[nH]2)C1 [Compound 88, (2R,3R,4S,5R)-2-(4-amino-7H-pyrrolo[2,3-d]pyrimidin-7-yl)-5-((((1s,3R)-3-(2-(5-(tert-butyl)-1H-benzo[d]imidazol-2-yl)ethyl)cyclobutyl) (ethyl)amino)methyl) tetrahydrofuran-3,4-diol]",> 7.00
2,"CCN(C[C@H]1O[C@@H](n2ccc3c(N)ncnc32)[C@H](O)[C@@H]1O)[C@H]1C[C@@H](CCc2nc3cc(C(C)(C)C)ccc3[nH]2)C1 [Compound 89, (2R,3R,4S,5R)-2-(4-amino-7H-pyrrolo[2,3-d]pyrimidin-7-yl)-5-((((1r,3S)-3-(2-(5-(tert-butyl)-1H-benzo[d]imidazol-2-yl)ethyl)cyclobutyl) (ethyl)amino)methyl) tetrahydrofuran-3,4-diol]",> 7.00
3,"CC(C)N(C[C@H]1O[C@@H](n2ccc3c(N)ncnc32)[C@H](O)[C@@H]1O)[C@H]1C[C@@H](CCc2nc3cc(C(C)(C)C)ccc3[nH]2)C1 [Compound 90, (2R,3R,4S,5R)-2-(4-amino-7H-pyrrolo[2,3-d]pyrimidin-7-yl)-5-((((1r,3S)-3-(2-(5-(tert-butyl)-1H-benzo[d]imidazol-2-yl)ethyl)cyclobutyl)(isopropyl)amino)methyl)tetrahydrofuran-3,4-diol]",> 7.00
4,"CN(C[C@H]1O[C@@H](n2ccc3c(N)ncnc32)[C@H](O)[C@@H]1O)[C@H]1C[C@H](CCc2nc3cc(C(C)(C)C)ccc3[nH]2)C1 [Compound 92, (2R,3R,4S,5R)-2-(4-amino-7H-pyrrolo[2,3-d]pyrimidin-7-yl)-5-((((1s,3R)-3-(2-(5-(tert-butyl)-1H-benzo[d]imidazol-2-yl)ethyl)cyclobutyl) (methyl)amino)methyl) tetrahydrofuran-3,4-diol]",> 7.00
5,"CN(C[C@H]1O[C@@H](n2ccc3c(N)ncnc32)[C@H](O)[C@@H]1O)[C@H]1C[C@@H](CCc2nc3cc(OC(F)(F)F)ccc3[nH]2)C1 [Compound 94, (2R,3R,4S,5R)-2-(4-amino-7H-pyrrolo[2,3-d]pyrimidin-7-yl)-5-((methyl((1r,3S)-3-(2-(5-(trifluoromethoxy)-1H-benzo[d]imidazol-2-yl)ethyl)cyclobutyl)amino)methyl) tetrahydrofuran-3,4-diol]",> 7.00
6,"CN(C[C@H]1O[C@@H](n2ccc3c(N)ncnc32)[C@H](O)[C@@H]1O)[C@H]1C[C@H](CCc2nc3cc(OC(F)(F)F)ccc3[nH]2)C1 [Compound 95, (2R,3R,4S,5R)-2-(4-amino-7H-pyrrolo[2,3-d]pyrimidin-7-yl)-5-((methyl((1s,3R)-3-(2-(5-(trifluoromethoxy)-1H-benzo[d]imidazol-2-yl)ethyl)eyclobutyl)amino)methyl) tetrahydrofuran-3,4-diol]",> 7.00
7,"CN(C[C@H]1O[C@@H](n2cnc3c(N)ncnc32)[C@H](O)[C@@H]1O)[C@H]1C[C@@H](CCc2nc3cc(OC(F)(F)F)ccc3[nH]2)C1 [Compound 96, (2R,3R,4S,5R)-2-(6-amino-9H-purin-9-yl)-5-((methyl((1r,3S)-3-(2-(5-(trifluoromethoxy)-1H-benzo[d]imidazol-2-yl)ethyl)cyclobutyl)amino)methyl)tetrahydrofuran-3,4-diol]",> 7.00
8,CN(C[C@H]1O[C@@H](n2cnc3c(N)ncnc32)[C@H](O)[C@@H]1O)[C@H]1C[C@H](CCc2nc3cc(OC(F)(F)F)ccc3[nH]2)C1 [Compound 97],> 7.00
9,"CC(C)(C)c1ccc2[nH]c(CC[C@H]3C[C@@H](NC[C@H]4O[C@@H](n5cnc6c(N)ncnc65)[C@H](O)[C@@H]4O)C3)nc2c1 [Compound 98, (2R,3R,4S,5R)-2-(6-amino-9H-purin-9-yl)-5-((((1r,3S)-3-(2-(5-(tert-butyl)-1H-benzo[d]imidazol-2-yl)ethyl)cyclobutyl)amino)methyl) tetrahydrofuran-3,4-diol]",> 7.00
10,"CC(C)(C)c1ccc2[nH]c(CC[C@H]3C[C@H](NC[C@H]4O[C@@H](n5cnc6c(N)ncnc65)[C@H](O)[C@@H]4O)C3)nc2c1 [Compound 99, (2R,3R,4S,5R)-2-(6-amino-9H-purin-9-yl)-5-((((1s,3R)-3-(2-(5-(tert-butyl)-1H-benzo[d]imidazol-2-yl)ethyl)cyclobutyl)amino)methyl) tetrahydrofuran-3,4-diol]",> 7.00
11,"CC(C)N(C[C@@H]1C[C@@H](O)[C@H](n2ccc3c(N)ncnc32)C1)[C@H]1C[C@@H](CCc2nc3cc(C(C)(C)C)ccc3[nH]2)C1 [Compound 101, (1R,2R,4S)-2-(4-amino-7H-pyrrolo[2,3-d]pyrimidin-7-yl)-4-((((1r,3R)-3-(2-(5-(tert-butyl)-1H-benzo[d]imidazol-2-yl)ethyl)cyclobutyl) (isopropyl)amino)methyl)cyclopentanol]",6.00 to 7.00
12,"CC(C)(C)c1ccc2[nH]c(CC[C@H]3C[C@@H](N(C[C@H]4O[C@@H](n5cnc6c(N)ncnc65)[C@H](O)[C@@H]4O)CC(F)(F)F)C3)nc2c1 [Compound 102, (2R,3R,4S,5R)-2-(6-amino-9H-purin-9-yl)-5-((((1r,3S)-3-(2-(5-(tert-butyl)-1H-benzo[d]imidazol-2-yl)ethyl)cyclobutyl) (2,2,2-trifluoroethyl)amino)methyl)tetrahydrofuran-3,4-diol]",6.00 to 7.00
13,"CC(C)N(C[C@@H]1C[C@@H](O)[C@H](n2ccc3c(N)ncnc32)C1)[C@H]1C[C@H](CCc2nc3cc(Cl)c(C(F)(F)F)cc3[nH]2)C1 [Compound 103, (1R,2R,4S)-2-(4-amino-7H-pyrrolo[2,3-d]pyrimidin-7-yl)-4-((((1s,3S)-3-(2-(5-chloro-6-(trifluoromethyl)-1H-benzo[d]imidazol-2-yl)ethyl)cyclobutyl) (isopropyl)amino)methyl)cyclopentanol]",5.00 to 6.00
14,"CC(C)N(C[C@@H]1C[C@@H](O)[C@H](n2ccc3c(N)ncnc32)C1)[C@H]1C[C@H](CCc2nc3cc(C(C)(C)C)ccc3[nH]2)C1 [Compound 104, (1R,2R,4S)-2-(4-amino-7H-pyrrolo[2,3-d]pyrimidin-7-yl)-4-((((1s,3S)-3-(2-(5-(tert-butyl)-1H-benzo[d]imidazol-2-yl)ethyl)cyclobutyl) (isopropyl)amino)methyl)cyclopentanol]",5.00 to 6.00

# Source: US8580762B2, “Substituted purine and 7-deazapurine compounds” (Epizyme, Inc., priority 2010, dated 2013)
